# Active and inactive are the calls of the source. No cut-off for these calls is given here.
# Tests used:
# Staphylococcus aureus = assay: Antibacterial activity against Staphylococcus aureus after 16 to 18 hr by serial dilution method; assay type: functional
# Escherichia coli = assay: Antibacterial activity against Escherichia coli after 16 to 18 hr by serial dilution method; assay type: functional
# HeLa [1] = assay: Cytotoxicity against Homo sapiens (human) HeLa cells after 48 hr by MTT assay; assay type: functional, cell-based
# HeLa [2] = assay: Cytotoxicity against Homo sapiens (human) HeLa cells assessed as cell death at 100 uM after 48 hr by MTT assay; assay type: functional
# HeLa [3] = assay: Cytotoxicity against Homo sapiens (human) HeLa cells assessed as cell death at 50 uM after 48 hr by MTT assay; assay type: functional
# HeLa [4] = assay: Cytotoxicity against Homo sapiens (human) HeLa cells assessed as cell death at 25 uM after 48 hr by MTT assay; assay type: functional
# HeLa [5] = assay: Cytotoxicity against Homo sapiens (human) HeLa cells assessed as cell death at 12.5 uM after 48 hr by MTT assay; assay type: functional
# Candida albicans = assay: Antifungal activity against Candida albicans after 16 to 18 hr by serial dilution method; assay type: functional
# Bacillus cereus = assay: Antibacterial activity against Bacillus cereus after 16 to 18 hr by serial dilution method; assay type: functional
# Pseudomonas aeruginosa = assay: Antibacterial activity against Pseudomonas aeruginosa after 16 to 18 hr by serial dilution method; assay type: functional
# HeLa [6] = assay: Cytotoxicity against Homo sapiens (human) HeLa cells assessed as cell death at 2.5 uM after 48 hr by MTT assay; assay type: functional
Compound,MIC (Staphylococcus aureus),MIC (Escherichia coli),EC50 (HeLa [1]),Activity (HeLa [2]),Activity (HeLa [3]),Activity (HeLa [4]),Activity (HeLa [5]),MIC (Candida albicans),MIC (Bacillus cereus),MIC (Pseudomonas aeruginosa),Activity (HeLa [6])
CSc1ccc(/C=N/n2c(Cc3ccc(S(C)(=O)=O)cc3)n[nH]c2=S)cc1,3.12 µg/mL,3.12 µg/mL,50 µM,71.86%,57.5%,32.66%,27.94%,3.12 µg/mL,3.12 µg/mL,3.12 µg/mL,–
CS(=O)(=O)c1ccc(Cc2n[nH]c(=S)n2/N=C/c2c(F)cccc2Cl)cc1,6.25 µg/mL,6.25 µg/mL,25 µM,77.28%,70.55%,55.32%,49.84%,3.12 µg/mL,3.12 µg/mL,3.12 µg/mL,–
CS(=O)(=O)c1ccc(Cc2n[nH]c(=S)n2/N=C/c2ccc(Cl)cc2)cc1,6.25 µg/mL,12.5 µg/mL,50 µM,57.04%,53.99%,47.51%,44.73%,1.56 µg/mL,6.25 µg/mL,6.25 µg/mL,–
COc1ccc2cc(/C=N/n3c(Cc4ccc(S(C)(=O)=O)cc4)n[nH]c3=S)ccc2c1,6.25 µg/mL,6.25 µg/mL,50 µM,64.6%,54.13%,42.01%,43.71%,6.25 µg/mL,6.25 µg/mL,6.25 µg/mL,–
CS(=O)(=O)c1ccc(Cc2n[nH]c(=S)n2/N=C/c2ccc(-c3ccccc3)cc2)cc1,6.25 µg/mL,3.12 µg/mL,50 µM,69.54%,61.56%,37.32%,30.44%,6.25 µg/mL,6.25 µg/mL,6.25 µg/mL,–
COc1cccc2c1C(=O)c1c(O)c3c(c(O)c1C2=O)C[C@@](O)(C(=O)CO)C[C@@H]3O[C@H]1C[C@H](N)[C@H](O)[C@H](C)O1 [DOXORUBICIN],–,–,2.5 µM,–,–,–,–,–,–,–,78.2%
CC1(C)S[C@@H]2[C@H](NC(=O)Cc3ccccc3)C(=O)N2[C@H]1C(=O)O [PENICILLIN G],0.097 µg/mL,0.097 µg/mL,–,–,–,–,–,–,0.097 µg/mL,0.097 µg/mL,–
CS(=O)(=O)c1ccc(Cc2n[nH]c(=S)n2/N=C/c2cccs2)cc1,12.5 µg/mL,3.12 µg/mL,100 µM,61.09%,48.59%,33.33%,28.69%,3.12 µg/mL,12.5 µg/mL,6.25 µg/mL,–
CS(=O)(=O)c1ccc(Cc2n[nH]c(=S)n2/N=C/c2cccnc2)cc1,6.25 µg/mL,6.25 µg/mL,> 100 µM,45.1%,14%,19.36%,16.89%,6.25 µg/mL,12.5 µg/mL,6.25 µg/mL,–
CS(=O)(=O)c1ccc(Cc2n[nH]c(=S)n2/N=C/c2ccccc2Cl)cc1,12.5 µg/mL,6.25 µg/mL,–,76.53%,42.65%,36.26%,34.65%,3.12 µg/mL,6.25 µg/mL,3.12 µg/mL,–
CS(=O)(=O)c1ccc(Cc2n[nH]c(=S)n2/N=C/c2ccccc2F)cc1,6.25 µg/mL,3.12 µg/mL,> 100 µM,28.08%,21.9%,14.03%,16.48%,3.12 µg/mL,3.12 µg/mL,6.25 µg/mL,–
CS(=O)(=O)c1ccc(Cc2n[nH]c(=S)n2/N=C/c2ccc(F)cc2)cc1,12.5 µg/mL,6.25 µg/mL,100 µM,57.79%,26.25%,inactive,2.8%,3.12 µg/mL,6.25 µg/mL,6.25 µg/mL,–
OC(Cn1cncn1)(Cn1cncn1)c1ccc(F)cc1F [FLUCONAZOLE],–,–,–,–,–,–,–,0.78 µg/mL,–,–,–
